Measured values from PubChem BioAssay AID1508612.

Experiment: passive permeability, PAMPA, ADME assay (AID 1508612)
Conditions: pH 7.4, 30.0 min, 50.0 µM

Compound | Papp [×10⁻⁶ cm/s]
CC(=O)Nc1ccc(OCc2cn(CC(=O)c3ccc(O)cc3)nn2)cc1 | < 1
CN(Cc1ccc(/C=C/C(=O)NO)cc1)CC12CC3CC(CC(C3)C1)C2 | > 1000
CC1=C(C(=O)Nc2nncs2)C2(CCCC2)N=C(Nc2nc3ccccc3o2)N1 | < 1
Nc1nc2c(s1)C(c1cc(Cl)ccc1F)CC(=O)N2 (stereo not given) | 476
NC(=O)C1CCN(c2ncc(Br)cn2)CC1 | 61.5
Cn1cc(-c2nc(Nc3ccc(F)c(F)c3)c3ccccc3n2)cn1 | 315
COc1ccc(C2Nc3ccccc3C(=O)N2Cc2ccco2)cc1 (stereo not given) | 799
CC(=O)NC(c1cccs1)c1cc(Br)c2cccnc2c1O (stereo not given) | 73
Cc1ccc(CNCc2cn[nH]c2-c2ccc(C)cc2)cc1 | > 1000
COc1cccc(CNc2ccc(S(=O)(=O)Nc3nc4ccccc4o3)cc2)c1O | 106
NC(=O)c1cccc(-c2cc(Nc3ccc(OC(F)(F)F)cc3)ncn2)c1 | 579
CN1CC=C(c2nc(Nc3ccc(F)c(F)c3)c3ccccc3n2)CC1 | > 1000
CC(C)=CCNc1ncnc2nc[nH]c12 | 54.1
c1ccc(C2=Nn3c(nnc3-c3ccncc3)SC2)cc1 | 195
O=C(Nc1ccc(Cl)cc1)Nc1ccc(Cl)c(Cl)c1 | 240
Nc1ccccc1CNc1ccc(S(=O)(=O)Nc2nccs2)cc1 | 1.09
Cc1ccc(-c2cc(C(=O)Nc3cccc(S(=O)(=O)Nc4nccs4)c3)c3ccccc3n2)cc1C | 22.3

Compound | Papp [×10⁻⁶ cm/s]
Ic1ccccc1CNC1C2CCN(CC2)C1C(c1ccccc1)c1ccccc1 (stereo not given) | > 1000
Nc1nc2c(s1)C(c1ccccc1)CC(=O)N2 (stereo not given) | 19.3
Fc1ccc(-c2csc3ncnc(Sc4nnnn4C4CC4)c23)cc1 | 834
C=CCc1cccc(CNc2ccc(S(=O)(=O)Nc3nccs3)cc2)c1O | 134
C[C@@H](NC(=O)c1ncnc(N)c1Cl)c1ncc(C(=O)Nc2cc(C(F)(F)F)c(Cl)cn2)s1 | > 1000
O=C([C@H](Cc1ccc(O[S+](=O)([O-])c2cccc3cnccc23)cc1)N[S+](=O)([O-])c1cccc2cnccc12)N1CCN(Cc2ccccc2)CC1 | 399
Cc1ccc(S(=O)(=O)Nc2cnccc2C(=O)Nc2nc(-c3cc(Br)cs3)cs2)cc1 | 9.1
COc1cccc(CNc2ccc(S(=O)(=O)Nc3ccc(C)nc3)cc2)c1O | 973
O=C1CCCC2=C1C(C1CCCCC1Cl)N=C(NC1NC3CCCCC3S1)N2 (stereo not given) | 161
COc1ccc(-c2cc(-c3cccc(NC(C)=O)c3)cn3cncc23)cn1 | 39
Fc1ccc(N2CCCN(CC3[C@H]4CNC[C@@H]34)CC2)cc1 (stereo not given in full) | 196
O=C(Nc1nnc(-c2cccs2)o1)c1ccc(Cl)cc1 | 126
CC/C=C\C/C=C\C/C=C\C/C=C\C/C=C\C/C=C\CCC(=O)NCCO | 298
CC(C)(N)CNC(=O)CC1CCC2(CC1)OOC1(O2)C2CC3CC(C2)CC1C3 (stereo not given) | 488
Cc1cc(NS(=O)(=O)c2ccc(NC(=O)Cc3ccc(Cl)c(F)c3)cc2)no1 | 11.5
N#Cc1cccc(S(=O)(=O)Nc2cnccc2C(=O)Nc2nc(-c3ccccc3)cs2)c1 | 189
Fc1cc(Nc2nc(-c3ccncc3)nc3ccccc23)ccc1OC(F)(F)F | 552

Second part, the molecule after the results:

Papp [×10⁻⁶ cm/s] | Compound
3.2 | Cn1cc(Nc2cnccc2C(=O)O)c2cccnc21
6.1 | COc1cc(Cl)cn2c(-c3cccc(NC4CNC4)n3)cnc12
> 1000 | CC(=O)N[C@H]1CN(C2CCN(c3ccc(F)cc3C)CC2)C[C@@H]1C1CC1
> 1000 | Nc1ncnc2c1c(-c1cnc3[nH]ccc3c1)nn2C1CCCC1
> 1000 | Cc1ccc(-c2nnc(Nc3ccc(Br)cc3)c3ccccc23)cc1S(=O)(=O)N1CCN(C)CC1
955 | CCCCC(C)/C=C(C)/C=C(\C)C(=O)NC1=CC(O)(/C=C/C=C/C=C/C(=O)NC2=C(O)CCC2=O)C2OC2C1=O (stereo not given)
> 1000 | CCCCCn1c(CCCNC(=O)c2ccccc2OC)nc2ccccc21
38.4 | CCOC(=O)C1CCN(C(=O)Nc2ccc3c(c2)nc(C)n3C)CC1
228 | COc1ccc(-c2nc3ccc(C4=NNC(=O)CC4C)cc3[nH]2)cc1 (stereo not given)
< 1 | N[C@H]1CN(c2c(F)cc3c(=O)c(C(=O)O)cn(C4C[C@@H]4F)c3c2Cl)CC12CC2 (stereo not given in full)
121 | O=C(COC(=O)CCC(=O)c1cccs1)NCc1ccco1
> 1000 | CCn1c(C(=O)N2CCCC(C(=O)NCCc3ccc(C)cc3)C2)cc2sccc21 (stereo not given)
> 1000 | CC(C)Oc1cccc(-c2ccnc(N3CCC(C(N)=O)CC3)n2)c1
< 1 | COc1ccc(NC(=O)c2c(C)c(C(C)=O)c(C)n2C)cc1S(=O)(=O)Nc1ccc(Br)cc1
> 1000 | COC(C)(C)CCn1nc(Nc2c(C)cccc2C)c2cnc(Nc3ccc(OCCN4CCCC4)c(F)c3)nc21
> 1000 | O=c1[nH]c(N2CCOCC2)nc2c1CCN(Cc1cc(Cl)ccc1F)CC2
> 1000 | CCOc1ccc(CCNC(=O)c2cc3c(s2)CCC3)cc1OCC
676 | Cc1cn(-c2cc(NC(=O)c3ccc(C)c(Nc4nccc(-c5cccnc5)n4)c3)cc(C(F)(F)F)c2)cn1
143 | CN(C(=O)CSc1nc2c(c(=O)[nH]1)CCCC2)c1ccccc1
> 1000 | COc1cc(Nc2nc(-c3ccncc3)nc3ccccc23)ccc1N1CCN(C)CC1
261 | Cc1cccc(CS(=O)(=O)c2ncc(Cl)c(C(=O)Nc3nc4ccc(F)cc4s3)n2)c1

Papp [×10⁻⁶ cm/s] | Compound
91.7 | CCCCCn1c(=O)[nH]c2cc(C(=O)NCCCN3CCC(C)CC3)ccc2c1=O
25.2 | CC1(COc2ccc3c(c2)ncn3-c2ccc3cccc(N4CCC(N)CC4)c3n2)COC1
58.5 | CCOC(=O)N1CCc2c(sc(NCc3ccc(N(C)C)cc3)c2C(=O)Nc2ccc(OC)cc2)C1
341 | CC[C@H](C)[C@@H]([C@@H](CC(=O)N1CCC[C@H]1[C@H](OC)[C@@H](C)C(=O)N[C@@H](Cc1ccccc1)c1nccs1)OC)N(C)C(=O)[C@@H](NC(=O)[C@H](C(C)C)N(C)C)C(C)C
89.4 | CCCc1nnc(NC(=O)c2nc(S(=O)(=O)Cc3ccc(C)cc3)ncc2Cl)s1
634 | Cc1cc2ccccc2n1CC(=O)NC1CCCCC1
80.4 | CCOc1ccc(NC(=O)c2cccc(-n3cccc3)c2)cc1S(=O)(=O)N1CCOCC1
> 1000 | OC1(c2ccc(Cl)cc2)CCN(Cc2c[nH]c3ccccc23)CC1
47.1 | CCOC(=O)N1CCN(C(=O)Cn2sc3nc(C)cc(C)c3c2=O)CC1
> 1000 | Cc1ccccc1S(=O)(=O)N1CCCC(CCC(=O)NCCN(C)C2CCCCC2)C1 (stereo not given)
613 | COc1c(C)c2c(c(O)c1C/C=C(\C)CCC(=O)OCCN1CCOCC1)C(=O)OC2
66.8 | COC[C@@H]1CN(C(=O)c2n[nH]c3ccccc23)C[C@H]1c1nc(C)no1
59.6 | Cc1ncc2c(c1CNC(=O)Cn1cnc3ccccc3c1=O)CCNC2
< 1 | CCOc1ccc(CN2C(=O)c3ccccc3Sc3ccc(C(=O)NC4CCC(C)CC4)cc32)cc1 (stereo not given)
86.8 | NC(=O)C1CCN(c2nc(-c3cccc(N)c3)cs2)CC1
450 | Cc1cc(C)nc(NC(=S)N2CCN(c3ccncc3)CC2)c1
550 | CCOC(=O)N1CCN(Cc2nc3c(c(=O)n(C)c(=O)n3C)n2Cc2ccc(F)cc2)CC1
> 1000 | Oc1ccc(-c2nc(C3CC3)nc3c2CCN(CC2CCCCC2)CC3)cc1
59 | Cc1cccc(C(=O)N2CCc3cc(-c4nc(NC(=O)Cc5ccc6c(c5)OCO6)sc4C)ccc32)c1
392 | CCN(C(=O)C(NS(=O)(=O)c1ccc(Br)s1)c1ccccc1)c1ccc(C)c(C)c1 (stereo not given)
